Laboratory results from patent US9550732B2, “Salt of pyrrolidin-3-yl acetic acid derivative and crystals thereof” (Eisai R&D Management Co., Ltd., priority 2013, dated 2017).

System: T cell transfer colitis model
Test: Amelioration of body weight loss in T cell transfer-induced colitis model
Assay type: in vivo
Conditions: colitis-induced SCID mice injected with CD4-positive CD45RB-high cells; orally once a day from Day 16 to 31; body weight Day 19-31
Description: By using colitis-induced SCID mice in which CD4-positive, CD45RB-high cells isolated from BALB/c mice splenocytes were injected, the efficacy of the example compounds was evaluated by the body weight changes. The experiment was performed over 31 days. On Day 1, CD4-positive, CD45RB-high cells isolated from the spleen of BALB/c mice (5×10^5 cells/mouse) were intravenously administered to SCID mice. From Day 16 to 31, the example compound was orally administered to the SCID mice once a day, followed by measuring body weights of all animals on Day 19, 22, 24, 26, 29 and 31. The efficacy was evaluated by body weight changes on Day 19, 22, 24, 26, 29 or 31. The body weight change (%) was determined by the formula shown below, where [A] is the body weight on Day 16, and [B] is the body weight on each day of body weight measurement (Day 19, 22, 24, 26, 29 or 31). body weight change (%)=B/A×100 (2) Results The results are shown in FIG. 6. The abscissa in the figures indicates the number of days elapsed, where the day on which CD4-positive, CD45RB-high cells isolated from the spleen of BALB/c mice (5×10^5 cells/mouse) were intravenously administered to SCID mice is Day 0.

## C[C@H]1CN(Cc2c(Cl)cccc2C(F)(F)F)C[C@@]1(CC(=O)O)C(=O)NC1CCN(CC2=CCCCC2)CC1 [compound (1), 2-[(3S,4R)-1-{[2-chloro-6-(trifluoromethyl)phenyl]methyl}-3-{[1-(cyclohex-1-en-1-ylmethyl)piperidin-4-yl]carbamoyl}-4-methylpyrrolidin-3-yl]acetic acid]
  effect on body weight change (FIG. 6): weight reduction-suppressing effect
